Source: publication PMC10101059, “Rational Design of Stapled Antimicrobial Peptides to Enhance Stability and In Vivo Potency against Polymicrobial Sepsis” (Microbiology Spectrum, 2023)
Like-named read-outs stand apart in the source and are kept apart here. Bridge positions count the residues as written; N and C are the ends. Square brackets hold non-standard residues; d marks the D form. Peptide text beside a SMILES is read from it. R5 = C=CCCC[C@@](C)(N)C(=O)O

Columns and labels:
Enterobacter aerogenes = assay: microbe, parasite or virus in culture; assay type: cell-based; conditions: MHB medium
Procedure: (§1) The antimicrobial assay was performed according to a modified National Committee for Clinical Laboratory Standards (NCCLS) protocol ([41], [42]). Briefly, 5 × 10^5 CFU/mL bacterial cells were treated with various peptide concentrations and incubated at 37 ± 2°C for 16 to 20 h. The lowest concentration with clear wells was recorded as the MIC for each test molecule. The clear wells were further plated in Mueller-Hinton agar (MHA) plates, followed by incubation overnight at 37 ± 2°C. After plating, the lowest concentration at which no growth was observed was recorded as the MBC. For the serum sensitivity assay, the antimicrobial activity of the peptides was tested in medium containing 50% human serum ([43], [44]).

Escherichia coli = assay: microbe, parasite or virus in culture; assay type: cell-based
Procedure: as §1

[1] = system: NDM-1 Klebsiella pneumoniae; assay: microbe, parasite or virus in culture; assay type: cell-based
Procedure: as §1

Pseudomonas aeruginosa = assay: microbe, parasite or virus in culture; assay type: cell-based
Procedure: as §1

Salmonella enterica = assay: microbe, parasite or virus in culture; assay type: cell-based; conditions: MHB medium
Procedure: as §1

MDR A. baumannii 1019 = assay: microbe, parasite or virus in culture; assay type: cell-based, Acinetobacter baumannii
Procedure: as §1

MDR A. baumannii 1033 = assay: microbe, parasite or virus in culture; assay type: cell-based, Acinetobacter baumannii; conditions: for MBC: read-out: MBC; for MIC: read-out: MIC
Procedure: as §1

MDR A. baumannii 14B0091 = assay: microbe, parasite or virus in culture; assay type: cell-based, Acinetobacter baumannii
Procedure: as §1

MDR A. baumannii 1607 = assay: microbe, parasite or virus in culture; assay type: cell-based, Acinetobacter baumannii
Procedure: as §1

MDR A. baumannii 1702 = assay: microbe, parasite or virus in culture; assay type: cell-based, Acinetobacter baumannii; conditions: for MBC: read-out: MBC; for MIC: read-out: MIC
Procedure: as §1

MDR A. baumannii 2088 = assay: microbe, parasite or virus in culture; assay type: cell-based, Acinetobacter baumannii
Procedure: as §1

MDR A. baumannii 2962 = assay: microbe, parasite or virus in culture; assay type: cell-based, Acinetobacter baumannii
Procedure: as §1

MDR A. baumannii 2982 = assay: microbe, parasite or virus in culture; assay type: cell-based, Acinetobacter baumannii
Procedure: as §1

MDR A. baumannii 2997 = assay: microbe, parasite or virus in culture; assay type: cell-based, Acinetobacter baumannii; conditions: for MBC: read-out: MBC; for MIC: read-out: MIC
Procedure: as §1

MDR A. baumannii 2998 = assay: microbe, parasite or virus in culture; assay type: cell-based, Acinetobacter baumannii
Procedure: as §1

MDR A. baumannii 3618 = assay: microbe, parasite or virus in culture; assay type: cell-based, Acinetobacter baumannii
Procedure: as §1

MDR A. baumannii 921 = assay: microbe, parasite or virus in culture; assay type: cell-based, Acinetobacter baumannii
Procedure: as §1

Staphylococcus aureus = assay type: cell-based
Procedure: as §1

Acinetobacter baumannii = assay: microbe, parasite or virus in culture; assay type: cell-based; conditions: for MBC: read-out: MBC; for MIC: read-out: MIC
Procedure: as §1, with “[44]). The antimicrobial assay was performed in the presence of physiological ions and glucose. The test media were supplemented with MgCl2 (1 mM), CaCl2 (2 mM), NaCl (150 mM), KCl (4.5 mM), NH4Cl (6 μM) ([45], [46]), or glucose (0.2%) ([47]), followed by routine antimicrobial assay as described previously. For the pH sensitivity assay, the antimicrobial assay was performed in media adjusted to pH values ranging from 4 to 12. To estimate the effects of temperature on antimicrobial activity, the peptide was incubated for 1 h at temperatures ranging from 40 to 100°C ([48]), followed by the antimicrobial assay as described above.” for “[44]).”

human red blood cells = assay type: cell-based
Procedure: The hemolytic assay was performed after approval from the institutional ethics committee (Academia Sinica Institutional Review Board [IRB]; ID no. AS-IRB02-111075). Blood was collected from healthy humans, and 50 μL of a 2% blood cell suspension in normal saline was treated with an equal volume of peptide at different concentrations. The mixture was then incubated at 37 ± 2°C for 1 h. Next, the cell suspension was centrifuged at 1,000 × g for 10 min. Percent hemolysis was estimated by the absorbance of treated and control supernatant samples at 540 nm ([23], [44]).

[2] = HS, 50% human serum containing MHB medium
[3] = HS, MH medium containing 50% human serum
[4] = HS, MH medium containing 50% human serum, read-out: MBC

CC[C@H](C)[C@H](NC(=O)[C@H](CCCCN)NC(=O)[C@H](CCC(=O)O)NC(=O)[C@H](CCCCN)NC(=O)[C@H](CO)NC(=O)[C@H](CCCCN)NC(=O)[C@H](CCCNC(=N)N)NC(=O)[C@H](Cc1ccccc1)NC(=O)[C@H](Cc1ccccc1)NC(=O)[C@H](CC(=O)O)NC(=O)CNC(=O)[C@H](CC(C)C)NC(=O)[C@@H](N)CC(C)C)C(=O)NCC(=O)N[C@@H](CCCCN)C(=O)N[C@@H](CCC(=O)O)C(=O)N[C@@H](Cc1ccccc1)C(=O)N[C@@H](CCCCN)C(=O)N[C@@H](CCCNC(=N)N)C(=O)N[C@H](C(=O)N[C@H](C(=O)N[C@@H](CCC(N)=O)C(=O)N[C@@H](CCCNC(=N)N)C(=O)N[C@H](C(=O)N[C@@H](CCCCN)C(=O)N[C@@H](CC(=O)O)C(=O)N[C@@H](Cc1ccccc1)C(=O)N[C@@H](CC(C)C)C(=O)N[C@@H](CCCNC(=N)N)C(=O)N[C@@H](CC(N)=O)C(=O)N[C@@H](CC(C)C)C(=O)N[C@H](C(=O)N1CCC[C@H]1C(=O)N[C@@H](CCCNC(=N)N)C(=O)N[C@H](C(=O)N[C@@H](CCC(=O)O)C(=O)N[C@@H](CO)C(=O)O)[C@@H](C)O)C(C)C)[C@@H](C)CC)C(C)C)[C@@H](C)CC [LL-37]
1.56 µM: MBC (MDR A. baumannii 2997; MHB medium) | MIC (MDR A. baumannii 2997; MHB medium)
12.5 µM: MBC (MDR A. baumannii 2982; MHB medium)
25 µM: MBC ([1]; MHB medium) | MIC ([1]; MHB medium)
6.25 µM: MBC (Enterobacter aerogenes) | MIC (Enterobacter aerogenes) | MBC (Escherichia coli; MHB medium) | MIC (Escherichia coli; MHB medium) | MBC (MDR A. baumannii 1019; MHB medium) | MIC (MDR A. baumannii 1019; MHB medium) | MBC (MDR A. baumannii 1033; MHB medium) | MIC (MDR A. baumannii 1033; MHB medium) | MBC (MDR A. baumannii 2962; MHB medium) | MIC (MDR A. baumannii 2962; MHB medium) | MIC (MDR A. baumannii 2982; MHB medium) | MIC (MDR A. baumannii 2998; MHB medium) | MBC (MDR A. baumannii 921; MHB medium) | MIC (MDR A. baumannii 921; MHB medium)
6.25−12.5 μM: MBC (Pseudomonas aeruginosa; MHB medium) | MIC (Pseudomonas aeruginosa; MHB medium)
6.25 to 12.5 µM: MBC (MDR A. baumannii 2998; MHB medium)
>25 µM: MBC (Escherichia coli; [2]) | MIC (Escherichia coli; [2]) | MBC [1, 2] | MIC [1, 2] | MBC (Pseudomonas aeruginosa; HS, 50% human serum containing MHB medium, read-out: MBC) | MIC (Pseudomonas aeruginosa; HS, 50% human serum containing MHB medium, read-out: MIC) | MBC (Salmonella enterica) | MIC (Salmonella enterica) | MBC (MDR A. baumannii 1019; [3]) | MIC (MDR A. baumannii 1019; [3]) | MBC (MDR A. baumannii 1033; [3]) | MIC (MDR A. baumannii 1033; [3]) | MBC (MDR A. baumannii 14B0091; [3]) | MIC (MDR A. baumannii 14B0091; [3]) | MIC (MDR A. baumannii 1607; [3]) | MBC (MDR A. baumannii 1607; [4]) | MBC (MDR A. baumannii 1702; [3]) | MIC (MDR A. baumannii 1702; [3]) | MBC (MDR A. baumannii 2088; [4]) | MIC (MDR A. baumannii 2088; HS, MH medium containing 50% human serum, read-out: MIC) | MBC (MDR A. baumannii 2962; [3]) | MIC (MDR A. baumannii 2962; [3]) | MBC (MDR A. baumannii 2982; [3]) | MIC (MDR A. baumannii 2982; [3]) | MBC (MDR A. baumannii 2997; [3]) | MIC (MDR A. baumannii 2997; [3]) | MIC (MDR A. baumannii 2998; [3]) | MBC (MDR A. baumannii 2998; [4]) | MBC (MDR A. baumannii 3618; [3]) | MIC (MDR A. baumannii 3618; [3]) | MBC (MDR A. baumannii 921; [3]) | MIC (MDR A. baumannii 921; [3])
3.13 to 6.25 µM: MBC (MDR A. baumannii 1607; MHB medium) | MBC (MDR A. baumannii 2088; MHB medium) | MIC (MDR A. baumannii 2088; MHB medium)
3.13 µM: MBC (MDR A. baumannii 14B0091; MHB medium) | MIC (MDR A. baumannii 14B0091; MHB medium) | MIC (MDR A. baumannii 1607; MHB medium) | MBC (MDR A. baumannii 1702; MHB medium) | MIC (MDR A. baumannii 1702; MHB medium) | MBC (MDR A. baumannii 3618; MHB medium) | MIC (MDR A. baumannii 3618; MHB medium)

CC[C@H](C)[C@H](NC(=O)[C@@H](NC(=O)[C@@H](NC(=O)[C@@H](N)Cc1ccccc1)[C@@H](C)CC)[C@@H](C)CC)C(=O)N[C@@H](CCCCN)C(=O)N[C@@H](CCCCN)C(=O)N[C@@H](CO)C(=O)NCC(=O)NCC(=O)N[C@@H](CC(C)C)C(=O)N[C@]1(C)CCCC=CCCC[C@](C)(C(=O)NCC(=O)N[C@@H](C)C(=O)N[C@]2(C)CCCC=CCCC[C@](C)(C(=O)N[C@H](C(=O)N[C@@H](CCCCN)C(=O)N[C@@H](CCCCN)C(=O)O)[C@@H](C)CC)NC(=O)[C@H](CCCCN)NC(=O)[C@H](CCCCN)NC(=O)[C@H](CCCCN)NC2=O)NC(=O)[C@H](CCCCN)NC(=O)[C@H](CCCCN)NC(=O)[C@H](CCCCN)NC1=O [TP4-2] (H-FIIIKKSGGL[R5]KKK[R5]GA[R5]KKK[R5]IKK-OH; staple 11-15, 18-22; N-terminus and C-terminus assumed)
>25 µM: MBC (Staphylococcus aureus) | MIC (Staphylococcus aureus)
12.5 µM: MBC (Acinetobacter baumannii) | MIC (Acinetobacter baumannii)
>100 µM: 15% hemolysis concn (human red blood cells)

CC[C@H](C)[C@H](NC(=O)[C@@H](NC(=O)[C@@H](N)Cc1ccccc1)[C@@H](C)CC)C(=O)N[C@]1(C)CCCC=CCCC[C@](C)(C(=O)NCC(=O)N[C@@H](CC(C)C)C(=O)N[C@]2(C)CCCC=CCCC[C@](C)(C(=O)NCC(=O)N[C@@H](C)C(=O)N[C@]3(C)CCCC=CCCC[C@](C)(C(=O)N[C@H](C(=O)N[C@@H](CCCCN)C(=O)N[C@@H](CCCCN)C(=O)O)[C@@H](C)CC)NC(=O)[C@H](CCCCN)NC(=O)[C@H](CCCCN)NC(=O)[C@H](CCCCN)NC3=O)NC(=O)[C@H](CCCCN)NC(=O)[C@H](CCCCN)NC(=O)[C@H](CCCCN)NC2=O)NC(=O)[C@H](CO)NC(=O)[C@H](CCCCN)NC(=O)[C@H](CCCCN)NC1=O [TP4-4] (H-FII[R5]KKS[R5]GL[R5]KKK[R5]GA[R5]KKK[R5]IKK-OH; staple 4-8, 11-15, 18-22; N-terminus and C-terminus assumed)
>100 µM: 15% hemolysis concn (human red blood cells)
12.5 µM: MBC (Acinetobacter baumannii) | MIC (Acinetobacter baumannii)
>25 µM: MBC (Staphylococcus aureus) | MIC (Staphylococcus aureus)
